Data published in article PMC8915624 (Antiviral Research, 2022).
pIC50: −log10 of the molar value. Read-outs that look alike come from different tables or passages of the source.

Columns and labels:
[1] = test system: SARS-CoV-2; format: cell-based; conditions: Vero-E6/SARS-CoV-2; MOI 0.1, 72 hpi, real-time RT-PCR
[2] = test system: HCoV-OC43; format: cell-based; conditions: for pIC50: MRC-5/OC43, MOI 0.1, 72 hpi, viral genome copies by real-time RT-PCR; for relative viral genome copy number in cell lysates and supernatants: 20 μM
[3] = test system: MRC-5 cells; experiment: Cell viability assay; format: cell-based, Human; conditions: for CC50: MRC-5 cells, MTT, 72 h
[4] = test system: SARS-CoV-2 NP protein; format: cell-based
[5] = test system: Vero-E6 cells; experiment: Cell viability assay; format: cell-based, African green monkey; conditions: MTT, 72 h
[6] = test system: SARS-CoV-2; format: cell-based
[7] = test system: HCoV-OC43; format: cell-based; conditions: Vero-E6/OC43; MOI 0.1, 72 hpi, real-time RT-PCR
[8] = test system: HCoV-OC43; format: cell-based; conditions: MRC-5, 72 hpi; 20 μM
[9] = test system: HCoV-OC43 NP; format: cell-based; conditions: MRC-5, MOI 1; 20 μM

Compound | pIC50 [1] | intra- and extra-cellular viral genome copy numbers ([2]; MRC-5, MOI 0.1, Cl-A 100 μM, BB-Cl 2.5 μM) | pIC50 [2] | CC50 [3] [µM] | reduction of SARS-CoV-2 NP protein expression [4] [%] | CC50 [5] [µM] | reduction in SARS-CoV-2 yield (plaque assay) [6] [log] | pIC50 [7] | inhibition of HCoV-OC43 replication rate (maximum within the range of concentrations tested) ([2]; MRC-5, MOI 0.1, 72 hpi) [%] | relative viral genome copy number in cell lysates and supernatants ([2]; MRC-5, MOI 0.1) | reduction of the viral titer (plaque assay) [8] | OC43 NP protein expression levels (Western blot) [9] | viral replication (viral genome production) ([2]; MRC-5, 20 μM) | cell viability ([3]; MRC-5, 20 μM)
NC(=O)[C@H](CCCN=C(N)CCl)NC(=O)c1ccccc1 [Cl-amidine] | 4.02 | drastically reduced | 4.46 | 949 | ~50 | > 1000 | 1 | 4.36 |  |  |  |  |  | 
AFM30a |  |  | < 4.70 | 321 |  |  |  |  | ≤ 40 | much less pronounced reduction | barely detectable | slight decrease |  | 
GSK199 |  |  | 6.22 | 133 |  |  |  |  |  | drastically reduced | ~2 log | dramatic downregulation | complete blockade of viral replication | viable
